Patent US20110318741A1, “BIOMARKERS FOR THE TREATMENT OF PSORIASIS” (priority 2010, published 2011)

Tested on: psoriasis lesional skin
Assay: Histological analysis (immunohistochemistry, H&E) of skin biopsies from psoriasis patients in a clinical trial
Type: in vivo, human
Conditions: for CD56 in Epidermis: Biopsy Parameters Median Change (%) / Langerin in Dermis: Biopsy Parameters Median Change (%) / CD11c in Epidermis: Biopsy Parameters Median Change (%) / CD3 in Dermis: Biopsy Parameters Median Change (%) / CD3 in Epidermis: Biopsy Parameters Median Change (%) / Thickness: Biopsy Parameters Median Change (%) / CD11c in Dermis: Biopsy Parameters Median Change (%) / CD56 in Dermis: Biopsy Parameters Median Change (%) / Langerin in Epidermis: Biopsy Parameters Median Change (%): subjects also with PASI values
Procedure: Skin biopsies were evaluated on 20 patients in a clinical trial, where 20 mg of (S)—N-(2-(1-(3-ethoxy-4-methoxyphenyl)-2-(methylsulfonyl)ethyl)-1,3-dioxoisoindolin-4-yl)acetamide was administered b.i.d. to patients with psoriasis. Skin biopsies were done 4 weeks and 12 weeks post-treatment.
The biopsies were subjected to a histological analysis in which response was assessed in H&E stained sections of skin biopsies and after staining frozen sections of skin biopsies with antibodies to keratin 16. CD3, CD11c. ICAM-1. Langerin, CD56, Foxp3, and HLA-DR. This analysis thus included an assessment of epidermal growth/differentiation, skin infiltration by T-cells and DC subsets, presence of regulatory T-cells, and presence of inflammation-regulating molecules in skin lesions.
The pharmacodynamic effects of (S)—N-(2-(1-(3-ethoxy-4-methoxyphenyl)-2-(methylsulfonyl)ethyl)-1,3-dioxoisoindolin-4-yl)acetamide were studied in skin biopsies from subjects treated with the compound in a phase 2, multi-center, open-label study evaluating the safety, tolerability, and efficacy of the compound in recalcitrant psoriasis vulgaris. Skin biopsies were taken from uninvolved and involved skin at baseline, and from involved skin after treatment with (S)—N-(2-(1-(3-ethoxy-4-methoxyphenyl)-2-(methylsulfonyl)ethyl)-1,3-dioxoisoindolin-4-yl)acetamide 20 mg BID after 4 and 12 weeks.
Skin biopsies were evaluated on 20 patients in this trial. The biopsies were analyzed by immunohistochemistry for a set of cellular markers (keratin 16, CD3. CD11c. ICAM-1, Langerin, CD56, Foxp3, and HLA-DR) to assess epidermal growth/differentiation, skin infiltration by T-cells and dendritic cells (DC), presence of regulatory T-cells, and the presence of inflammation-regulating molecules in skin lesions.

Structure (SMILES): CCOc1cc([C@@H](CS(C)(=O)=O)N2C(=O)c3cccc(NC(C)=O)c3C2=O)ccc1OC [(S)—N-(2-(1-(3-ethoxy-4-methoxyphenyl)-2-(methylsulfonyl)ethyl)-1,3-dioxoisoindolin-4-yl)acetamide]
- CD3+ T cells in the epidermis and dermis (20 mg BID): significant reductions
- CD56+ NK cells in the epidermis (20 mg BID): significant reductions
- CD56 in Epidermis: Biopsy Parameters Median Change (%) (Week 4, 20 mg BID, No. 16): −75.6%
- Langerin in Dermis: Biopsy Parameters Median Change (%) (Week 4, 20 mg BID, No. 17): −50.0%
- CD11c in Epidermis: Biopsy Parameters Median Change (%) (Week 4, 20 mg BID, No. 18): −73.1%
- CD3 in Dermis: Biopsy Parameters Median Change (%) (Week 4, 20 mg BID, No. 19): −24.5%
- CD3 in Epidermis: Biopsy Parameters Median Change (%) (Week 4, 20 mg BID, No. 19): −35.0%
- Thickness: Biopsy Parameters Median Change (%) (Week 4, 20 mg BID, No. 19): −22.9%
- CD11c in Dermis: Biopsy Parameters Median Change (%) (Week 4, 20 mg BID, No. 20): −45.8%
- CD56 in Dermis: Biopsy Parameters Median Change (%) (Week 4, 20 mg BID, No. 20): −27.6%
- Langerin in Epidermis: Biopsy Parameters Median Change (%) (Week 4, 20 mg BID, No. 20): 9.49%
- CD3 T cells in Dermis: Median % change from baseline (Week 4, 20 mg b.i.d.): −24.5%
- CD3 T cells in Epidermis: Median % change from baseline (Week 4, 20 mg b.i.d.): −35.0%
- CD11c myeloid DC in Dermis: Median % change from baseline (Week 4, 20 mg b.i.d.): −45.8%
- CD11c myeloid DC in Epidermis: Median % change from baseline (Week 4, 20 mg b.i.d.): −73.1%
- CD56 NK cells in Dermis: Median % change from baseline (Week 4, 20 mg b.i.d.): −27.6%
- CD56 NK cells in Epidermis: Median % change from baseline (Week 4, 20 mg b.i.d.): −75.6%
- Epidermal Thickness: Median % change from baseline (Week 4, 20 mg b.i.d.): −22.9%
- Langerin in Dermis: Median % change from baseline (Week 4, 20 mg b.i.d.): −50.0%
- Langerin in Epidermis: Median % change from baseline (Week 4, 20 mg b.i.d.): 9.5%
- reduction of epidermal CD11c+ infiltrates (Week 4, 20 mg b.i.d.): 73%
- CD56 in Epidermis: Biopsy Parameters Median Change (%) (Week 12, 20 mg BID, No. 12): −77.6%
- Langerin in Dermis: Biopsy Parameters Median Change (%) (Week 12, 20 mg BID, No. 12): −67.0%
- CD11c in Epidermis: Biopsy Parameters Median Change (%) (Week 12, 20 mg BID, No. 13): −97.5%
- CD11c in Dermis: Biopsy Parameters Median Change (%) (Week 12, 20 mg BID, No. 14): −56.0%
- Thickness: Biopsy Parameters Median Change (%) (Week 12, 20 mg BID, No. 14): −34.8%
- CD3 in Dermis: Biopsy Parameters Median Change (%) (Week 12, 20 mg BID, No. 15): −63.1%
- CD3 in Epidermis: Biopsy Parameters Median Change (%) (Week 12, 20 mg BID, No. 15): −56.1%
- CD56 in Dermis: Biopsy Parameters Median Change (%) (Week 12, 20 mg BID, No. 15): −18.2%
- Langerin in Epidermis: Biopsy Parameters Median Change (%) (Week 12, 20 mg BID, No. 15): 41.67%
- CD3 T cells in Dermis: Median % change from baseline (Week 12, 20 mg b.i.d.): −62.0%
- CD3 T cells in Epidermis: Median % change from baseline (Week 12, 20 mg b.i.d.): −47.4%
- CD11c myeloid DC in Dermis: Median % change from baseline (Week 12, 20 mg b.i.d.): −54.6%
- CD11c myeloid DC in Epidermis: Median % change from baseline (Week 12, 20 mg b.i.d.): −88.6%
- CD56 NK cells in Dermis: Median % change from baseline (Week 12, 20 mg b.i.d.): −12.5%
- CD56 NK cells in Epidermis: Median % change from baseline (Week 12, 20 mg b.i.d.): −73.3%
- Epidermal Thickness: Median % change from baseline (Week 12, 20 mg b.i.d.): −34.3%
- Langerin in Dermis: Median % change from baseline (Week 12, 20 mg b.i.d.): −57.9%
- Langerin in Epidermis: Median % change from baseline (Week 12, 20 mg b.i.d.): 17.1%
- reduction of epidermal CD11c+ infiltrates (Week 12, 20 mg b.i.d.): 84%
- cases showing improvement in psoriasis (reduction in epidermal hyperplasia and/or keratin 16 staining) (day 29, of the 20 cases analyzed, 20 mg b.i.d.): 10 cases
- T-cells in biopsies (day 29 and day 85 biopsies, overall reductions not statistically significant): reductions
- median reduction in epidermal thickness (day 85, 20 mg b.i.d.): 34%
- epidermal Langerhan's cells (day 85 biopsies): small increase
- cases showing absence of keratin 16 staining (day 85 biopsies, 20 mg b.i.d.): 5 cases
- cases showing disease improvement (day 85 biopsies, of the 20 cases analyzed, 20 mg b.i.d.): Nine
- CD56+ cells (NK cells or NK-T-cells) (during treatment, between week 4 and week 12): minimally altered
- inflammatory myeloid CD11c+ DCs (TIP-DCs) (epidermis and dermis, week 4 and week 12, 20 mg BID): major reduction
- Langerin in the epidermis (not statistically significant, not elevated in the dermis, 20 mg BID): slightly elevated
- reductions in cellular infiltrates in epidermis and dermis, responders vs non-responders (responders: change in PASI of 75% or more at week 12): greater among responders
- reduction in epidermal thickness (week 4, all measured values of thickness, 20 mg b.i.d.): 23%
- median reduction of dermal CD11c+ DCs (week 4 biopsies, 20 mg b.i.d.): 45%
